Converted amounts (≈) assume the structure as drawn.
Tests used:
MDR-EAEC isolates [1] = assay: In vitro antibiotic susceptibility testing of MDR-EAEC isolates; format: cell-based, enteroaggregative Escherichia coli; design: key to Antibiotic Susceptibility testing / MIC Values (mg/L), given as class symbol: S – Sensitive; R- Resistant; details: for MIC: Escherichia coli
Description: E. coli ATCC 25922 was used as the quality control strain for antibiotic susceptibility testing.

MDR-EAEC isolates [2] = assay: In vitro time-kill kinetics; format: cell-based, enteroaggregative Escherichia coli; details: 10 μg/ml, ca. 1 × 10^7 CFU/ml, CA-MH broth, 37°C
Description: The in vitro dose- and time-kill kinetics was assessed by co-incubating the log-phase cultures of each of MDR-EAEC isolates (ca. 1 × 10^7 CFU/ml) in cation-adjusted Mueller Hinton (CA-MH) broth with MIC (1 × and 2 × ) of Lfcin (17–30) (Supplementary Information S6). The desired inoculum for each MDR-EAEC strain and Lfcin (17–30) suspended in CA-MH broth was as follows: Group I, 10^7 CFU of MDR-EAEC (50 μl) with 1 × MIC of Lfcin (17–30) (50 μl); Group II, 10^7 CFU of MDR-EAEC (50 μl) with 2 × MIC of Lfcin (17–30) (50 μl); Group III, 10^7 CFU of MDR-EAEC (50 μl) with 10 μg/ml of Meropenem (50 μl); and Group IV, 10^7 CFU of MDR-EAEC (50 μl) in CA-MH broth (50 μl). The MDR-EAEC counts were enumerated ([Miles et al., 1938]) at 0, 30, 60, 90, 120, 150, and 180 min, and 24, 48, and 72 h post co-incubation.
FIGURE 2 Dose- and time-dependent time-kill assay of MDR-EAEC isolates co-cultured with Lfcin (17–30). MDR-EAEC isolates (n = 3) were co-cultured with 1 × MIC of Lfcin (17–30) (A) and 2 × MIC of Lfcin (17–30) (B) in CA-MH broth at 37°C under static conditions with respective controls of MDR-EAEC isolates (untreated and meropenem-treated). Data expressed as the mean ± standard deviation (log10CFU/ml) of three independent experiments (***P < 0.001). […]

[3] = test system: G. mellonella larvae infected with MDR-EAEC (a cocktail of three strains); assay: G. mellonella larval survival; format: in vivo, Galleria mellonella; details: larvae infected with LD50 dose (10^6 CFU) of MDR-EAEC, MIC dose 3 h pi, up to 120 h pi, 40 larvae per group
Description: The final instar of G. mellonella larvae was utilized for performing the in vivo assays ([Morgan et al., 2014]). The larvae (ca. 200–250 mg) inoculated with aliquots of MDR-EAEC suspensions (10 μl) by injection using Hamilton syringe (26 gauge) via the last right pro-leg were incubated at 37°C and the observations were noted. The larvae kept in a sterile environment were provided with ad lib food during the experiment.
The determined LD50 dose for each MDR-EAEC strain in the larvae was validated and employed further in the in vivo experiments to evaluate the antibacterial efficacy of Lfcin (17–30).
Galleria mellonella larvae were grouped 40 per group for in vivo antimicrobial testing of Lfcin (17–30) as follows: group I (MDR-EAEC infection control), groups II and III (infection + treatment groups), group IV (PBS control), and group V [Lfcin(17–30) control]. Optimized LD50 dose of MDR-EAEC (a cocktail of three strains) was administered to larvae of groups I to III, while MIC dose of Lfcin (17–30) and Meropenem was administered 3 h post-infection (pi) in groups II and III, respectively. Larval group IV was injected with sterile PBS, whereas MIC dose of Lfcin (17–30) was administered in group V. […]

G. mellonella larvae = assay: LDH cytotoxicity assay of larval haemolymph; format: in vivo, Galleria mellonella; details: infected larvae treated 3 h pi
Description: Galleria mellonella larvae were grouped 40 per group for in vivo antimicrobial testing of Lfcin (17–30) as follows: group I (MDR-EAEC infection control), groups II and III (infection + treatment groups), group IV (PBS control), and group V [Lfcin(17–30) control]. Optimized LD50 dose of MDR-EAEC (a cocktail of three strains) was administered to larvae of groups I to III, while MIC dose of Lfcin (17–30) and Meropenem was administered 3 h post-infection (pi) in groups II and III, respectively. Larval group IV was injected with sterile PBS, whereas MIC dose of Lfcin (17–30) was administered in group V.
The larvae were then observed for their survival rate, melanization (Supplementary Information S7), MDR-EAEC counts (Supplementary Information S8), hemocyte density (Supplementary Information S9) ([Wand et al., 2013]), lactate dehydrogenase (LDH) cytotoxicity assay (Supplementary Information S10) ([Gibreel and Upton, 2013]), and histopathology (Supplementary Information S11) ([Perdoni et al., 2014]), at an interval of 6 h till 24 h, followed by 24-h interval up to 120 h pi.
G. mellonella (n=3 larvae per group) were analysed for the production of LDH, as a marker of cell damage, at an interval of 6 h pi for 24 h, followed by 24 h interval till 96 h pi using QuantiChrom LDH cytotoxicity assay kit, according to the manufacturer’s instructions. The positive and negative controls used in this study were […]. The absorbance was read using ELISA plate reader at 500 nm; the haemolymph from untreated larvae served as background control and the cytotoxicity was calculated as, Cytotoxicity (%) = (ODSample - ODControl)/ (ODTotal Lysis - ODControl) x 100, wherein, sample is the control absorbance of treated cell; control is the experimental absorbance of the untreated cell control and total lysis is the absorbance of Triton X-100 treated cells.

## CC1(C)S[C@@H]2[C@H](NC(=O)[C@H](N)c3ccccc3)C(=O)N2[C@H]1C(=O)O [AMP, Ampicillin]
MDR-EAEC isolates [1]; KY941936.1 (MDR 1)
  MIC: > 240 µg/mL
  Antibiotic Susceptibility testing: R
MDR-EAEC isolates [1]; KY941937.1 (MDR 2)
  MIC: > 240 µg/mL
  Antibiotic Susceptibility testing: R
MDR-EAEC isolates [1]; KY941938.1 (MDR 3)
  MIC: > 240 µg/mL
  Antibiotic Susceptibility testing: R

## O=C(O)c1cn(C2CC2)c2cc(N3CCNCC3)c(F)cc2c1=O [CIP, Ciprofloxacin]
MDR-EAEC isolates [1]; KY941937.1 (MDR 2)
  MIC: 120 µg/mL (≈ 362 µM)
  Antibiotic Susceptibility testing: R
MDR-EAEC isolates [1]; KY941938.1 (MDR 3)
  MIC: 60 µg/mL (≈ 181 µM)
  Antibiotic Susceptibility testing: R
MDR-EAEC isolates [1]; KY941936.1 (MDR 1)
  Antibiotic Susceptibility testing: S

## O=C(N[C@H](CO)[C@H](O)c1ccc([N+](=O)[O-])cc1)C(Cl)Cl [CL, Chloramphenicol]
MDR-EAEC isolates [1]; KY941936.1 (MDR 1)
  Antibiotic Susceptibility testing: S
  MIC Values (mg/L), given as class symbol: S
MDR-EAEC isolates [1]; KY941937.1 (MDR 2)
  Antibiotic Susceptibility testing: S
  MIC Values (mg/L), given as class symbol: S
MDR-EAEC isolates [1]; KY941938.1 (MDR 3)
  Antibiotic Susceptibility testing: S
  MIC Values (mg/L), given as class symbol: S

## CO/N=C(\C(=O)N[C@@H]1C(=O)N2C(C(=O)O)=C(CSc3nc(=O)c(=O)[nH]n3C)CS[C@H]12)c1csc(N)n1 [CTR, Ceftriaxone]
MDR-EAEC isolates [1]; KY941937.1 (MDR 2)
  MIC: > 240 µg/mL
  Antibiotic Susceptibility testing: R
MDR-EAEC isolates [1]; KY941938.1 (MDR 3)
  MIC: > 240 µg/mL
  Antibiotic Susceptibility testing: R
MDR-EAEC isolates [1]; KY941936.1 (MDR 1)
  Antibiotic Susceptibility testing: S
  MIC Values (mg/L), given as class symbol: S

## CNC(C)C1CCC(N)C(OC2C(N)CC(N)C(OC3OCC(C)(O)C(NC)C3O)C2O)O1 (stereo not drawn) [GEN, Gentamicin]
MDR-EAEC isolates [1]; KY941936.1 (MDR 1)
  Antibiotic Susceptibility testing: S
  MIC Values (mg/L), given as class symbol: S
MDR-EAEC isolates [1]; KY941937.1 (MDR 2)
  Antibiotic Susceptibility testing: S
  MIC Values (mg/L), given as class symbol: S
MDR-EAEC isolates [1]; KY941938.1 (MDR 3)
  Antibiotic Susceptibility testing: S
  MIC Values (mg/L), given as class symbol: S

## C[C@@H](O)[C@H]1C(=O)N2C(C(=O)O)=C(SCCN=CN)C[C@H]12 [IMI, Imipenem]
MDR-EAEC isolates [1]; KY941936.1 (MDR 1)
  Antibiotic Susceptibility testing: S
  MIC Values (mg/L), given as class symbol: S
MDR-EAEC isolates [1]; KY941937.1 (MDR 2)
  Antibiotic Susceptibility testing: S
  MIC Values (mg/L), given as class symbol: S
MDR-EAEC isolates [1]; KY941938.1 (MDR 3)
  Antibiotic Susceptibility testing: S
  MIC Values (mg/L), given as class symbol: S

## Cc1cc(NS(=O)(=O)c2ccc(N)cc2)no1 [SXT, Sulfamethoxazole]
MDR-EAEC isolates [1]; KY941936.1 (MDR 1)
  Antibiotic Susceptibility testing: R
MDR-EAEC isolates [1]; KY941937.1 (MDR 2)
  Antibiotic Susceptibility testing: S
MDR-EAEC isolates [1]; KY941938.1 (MDR 3)
  Antibiotic Susceptibility testing: R

## CN(C)[C@@H]1C(O)=C(C(N)=O)C(=O)[C@@]2(O)C(O)=C3C(=O)c4c(O)cccc4[C@@](C)(O)[C@H]3C[C@@H]12 [TE, Tetracycline]
MDR-EAEC isolates [1]; KY941936.1 (MDR 1)
  MIC: 60 µg/mL (≈ 135 µM)
  Antibiotic Susceptibility testing: R
MDR-EAEC isolates [1]; KY941937.1 (MDR 2)
  MIC: 2 µg/mL (≈ 4.5 µM)
  Antibiotic Susceptibility testing: R
MDR-EAEC isolates [1]; KY941938.1 (MDR 3)
  MIC: 30 µg/mL (≈ 67.5 µM)
  Antibiotic Susceptibility testing: R

## C[C@@H](O)[C@H]1C(=O)N2C(C(=O)O)=C(S[C@@H]3CN[C@H](C(=O)N(C)C)C3)[C@H](C)[C@H]12 [meropenem, reference compound]
MDR-EAEC isolates [2]
  reduction in bacterial counts at 30 min post-coincubation: highly significant (P < 0.001) reduction
  time post-coincubation after which complete inhibition: 60 min
[3]
  survival rate: 85%
G. mellonella larvae
  LDH cytotoxicity: Almost similar observations

## Co-trimoxazole [COT]
MDR-EAEC isolates [1]; KY941936.1 (MDR 1)
  Antibiotic Susceptibility testing: R
  MIC Values: >240 mg/L
MDR-EAEC isolates [1]; KY941937.1 (MDR 2)
  Antibiotic Susceptibility testing: R
  MIC Values: >240 mg/L
MDR-EAEC isolates [1]; KY941938.1 (MDR 3)
  Antibiotic Susceptibility testing: R
  MIC Values: >240 mg/L

## Colistin sulphate
MDR-EAEC isolates [1]; KY941936.1 (MDR 1)
  Antibiotic Susceptibility testing: S
  MIC Values (mg/L), given as class symbol: S
MDR-EAEC isolates [1]; KY941937.1 (MDR 2)
  Antibiotic Susceptibility testing: S
  MIC Values (mg/L), given as class symbol: S
MDR-EAEC isolates [1]; KY941938.1 (MDR 3)
  Antibiotic Susceptibility testing: S
  MIC Values (mg/L), given as class symbol: S
